Experimental data from patent publication US20220040158A1, “AZD0328 DOSAGE REGIME FOR TREATING COGNITIVE IMPAIRMENT” (ASTRAZENECA AB, priority 2018, published 2022).
pEC50, pIC50, pKi: −log10 of the molar value. Read-outs that look alike come from different tables or passages of the source.

Legend:
[1] = Phase I oral single ascending dose study of AZD0328 in healthy volunteers (safety, tolerability, pharmacokinetics); format: in vivo, human
Text: (§1) We thus set out to use summary cohort-level pharmacokinetic (PK) statistics for AQW051 (Feuerbach et al, ibid) and our own unpublished results for AZD0328 (A Phase I, Single-Centre, Randomized, Double-Blind, Placebo-Controlled, Parallel Group Study to Assess the Safety, Tolerability and Pharmacokinetics of AZD0328 in Healthy Volunteers after Oral Single Ascending Doses, Study Code D0190C00005, Ed. 1, 8 Apr. 2008) to establish a safe an efficacious dose range and regime for AZD0328 in Parkinson's disease patients.
(§2) From the clinical study documentation, for each dose cohort t1/2, tmax, and Cmax could be established. For example, assuming dose-proportionality, half-life t1/2 was estimated for both drugs as the mean over of t1/2 over the different single-dose cohorts, as described in the study publications. We could then determine a working value for the elimination time constant ke in equation (2): […]
Capsules used in the study on which the modelling described above was performed were made by blending AZD0328 tartrate (monotartrate/monohydrate form) with mannitol, povidone and sodium starch glycolate (see Table 5). The blend was the subjected to wet granulation with water as the granulation fluid, then dried before blending with sodium stearyl fumarate. The resultant composition was filled into size 4 hard gelatin capsules (containing gelatin (Ph Eur), titanium dioxide (Ph Eur), and iron oxide black, red and yellow (E172). In embodiments, the compositions for use are capsules according to Table 5.

schizophrenia patients = assay: clinical evaluation of cognition in schizophrenia patients; format: in vivo, human; conditions: doses up to 0.675 mg
Text: In the case of schizophrenia, it has been widely postulated that direct-acting agonists of various cholinergic receptors including α7 nAChRs, could normalize GABAergic, glutamergic, or dopaminergic function in the dorsolateral prefrontal cortex (dIPFC), dysfunction of which has been consistently associated with cognitive deficits in this condition. […] To date, despite numerous trials, no α7 nAChR agonist has been approved for use in the treatment of schizophrenia.
(§3) In Rhesus monkeys, spatial working memory was enhanced by doses of AZD0328 above 0.001 mg/kg (plasma compound levels of ca 0.2 times the whole cell current IC50).

α7 nAChR [2] = molecular target: T1, α7 nAChR (Homo sapiens, UniProt P36544); assay: Ki for efficacy used as threshold in PK figures; conditions: threshold indicated in FIGS. 3-5
T1 sequence (P36544 23-502): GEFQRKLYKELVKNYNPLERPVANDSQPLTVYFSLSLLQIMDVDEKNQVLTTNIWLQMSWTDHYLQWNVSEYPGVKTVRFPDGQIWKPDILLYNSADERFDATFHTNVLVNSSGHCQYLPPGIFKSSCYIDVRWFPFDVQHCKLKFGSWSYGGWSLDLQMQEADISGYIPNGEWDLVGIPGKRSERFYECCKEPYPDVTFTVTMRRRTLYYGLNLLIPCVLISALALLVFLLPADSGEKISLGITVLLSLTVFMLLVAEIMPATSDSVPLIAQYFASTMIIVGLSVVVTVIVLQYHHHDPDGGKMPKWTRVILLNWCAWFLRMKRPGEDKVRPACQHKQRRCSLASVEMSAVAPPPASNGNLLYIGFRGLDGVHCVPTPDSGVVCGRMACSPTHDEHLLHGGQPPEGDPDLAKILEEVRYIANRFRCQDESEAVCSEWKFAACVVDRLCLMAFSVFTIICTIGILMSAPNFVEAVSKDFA

α7 nAChR [3] = molecular target: T1, α7 nAChR; assay: α7 nAChR binding (inhibition of radioligand binding)
Text: (§4) AZD0328 is ca 20-fold selective to the α1β1γδ nAChR, and 1000-fold selective to other nicotinic receptors and a panel of other targets (as determined by inhibition of radioligand binding).

[4] = single compartment oral dosing PK model for AZD0328; design: species or system human; conditions: model parameter estimate
Text: (§5) In more detail, a single compartment oral dosing model with first order absorption as shown in equation (1) for a single dose at time t=0. This population-level model describes the concentration time dynamics of the study cohort given dose D of the drug. Here t is time, C(t) is drug concentration over time, Cmax is maximum achieved concentration at a particular dose, F is bioavailability, D is dose, Vd is volume of distribution, kα is the absorption time constant, and ke is the elimination time constant.
as §2
(§6) From equation (1), the time of maximum concentration tmax is then available from (3):
(§7) With dose-proportionality, tmax is independent of dose and is again obtained from the mean over the different single-dose cohorts. The absorption time constant kα is established by identifying the kα which results in a zero error e=0:
(§8) This is accomplished by graphing e(kα) over a dense grid in kα, identifying a region around the zero-crossing in which e(.) is monotonic in k0, and then using the interpolation function to estimate the kα with e(kα)=0. With the assumption of dose proportionality, we estimated the mean of Cmax/D over the single-dose cohorts and defined the constant K
(§9) Then from equation (1) and the definition of Cmax,
(§10) For multiple doses at times τi, we then assume linearity and hav
(§11) All equations were implemented directly in R version 3.2.1 (2015 Jun. 18, see https://cran.r-project.org/).

α7 nAChR [5] = molecular target: T1, α7 nAChR; assay: activation of whole cell current at α7 nAChR; format: cell-based
[6] = test system: other nicotinic receptors and a panel of other targets; assay: selectivity by inhibition of radioligand binding, other nicotinic receptors and panel; conditions: relative to α7 nAChR
Text: as §4

Rhesus monkeys = assay: spatial working memory in Rhesus monkeys; format: in vivo, Rhesus monkey
Method: as §3

rats = conditions: oral administration (WO2008/115139); cited from earlier work
α1β1γδ nAChR = α1β1γδ nAChR (Homo sapiens, UniProt P02708+P07510+Q07001); assay: selectivity by inhibition of radioligand binding, α1β1γδ nAChR; conditions: relative to α7 nAChR
α1β1γδ nAChR, sequence (P02708 21-457): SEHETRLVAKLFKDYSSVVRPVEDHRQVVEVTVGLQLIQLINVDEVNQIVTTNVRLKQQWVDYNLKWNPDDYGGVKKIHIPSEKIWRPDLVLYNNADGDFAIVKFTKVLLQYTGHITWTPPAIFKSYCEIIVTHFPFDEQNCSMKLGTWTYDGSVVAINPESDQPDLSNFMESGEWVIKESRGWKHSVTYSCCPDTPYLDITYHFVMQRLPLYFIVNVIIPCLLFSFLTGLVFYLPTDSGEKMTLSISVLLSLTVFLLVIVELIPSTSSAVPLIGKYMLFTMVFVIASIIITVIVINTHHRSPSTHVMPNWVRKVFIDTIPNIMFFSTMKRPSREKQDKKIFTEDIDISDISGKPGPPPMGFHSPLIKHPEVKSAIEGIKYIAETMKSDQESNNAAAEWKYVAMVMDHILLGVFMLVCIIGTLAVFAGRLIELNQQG
α1β1γδ nAChR, sequence (P11230 24-501 partner): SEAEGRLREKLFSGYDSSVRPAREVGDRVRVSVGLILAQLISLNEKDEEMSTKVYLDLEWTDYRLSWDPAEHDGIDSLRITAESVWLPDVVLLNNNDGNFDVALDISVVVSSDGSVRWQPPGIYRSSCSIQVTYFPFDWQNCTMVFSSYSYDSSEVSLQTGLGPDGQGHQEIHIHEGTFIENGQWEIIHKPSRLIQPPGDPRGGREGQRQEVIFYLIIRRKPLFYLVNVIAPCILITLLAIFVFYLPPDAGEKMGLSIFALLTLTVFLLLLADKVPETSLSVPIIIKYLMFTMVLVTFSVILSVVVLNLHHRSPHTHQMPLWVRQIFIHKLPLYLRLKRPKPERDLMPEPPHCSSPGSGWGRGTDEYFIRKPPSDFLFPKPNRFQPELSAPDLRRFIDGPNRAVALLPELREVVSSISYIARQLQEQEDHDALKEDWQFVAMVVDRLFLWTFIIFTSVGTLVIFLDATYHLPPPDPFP
α1β1γδ nAChR, sequence (P07510 23-517): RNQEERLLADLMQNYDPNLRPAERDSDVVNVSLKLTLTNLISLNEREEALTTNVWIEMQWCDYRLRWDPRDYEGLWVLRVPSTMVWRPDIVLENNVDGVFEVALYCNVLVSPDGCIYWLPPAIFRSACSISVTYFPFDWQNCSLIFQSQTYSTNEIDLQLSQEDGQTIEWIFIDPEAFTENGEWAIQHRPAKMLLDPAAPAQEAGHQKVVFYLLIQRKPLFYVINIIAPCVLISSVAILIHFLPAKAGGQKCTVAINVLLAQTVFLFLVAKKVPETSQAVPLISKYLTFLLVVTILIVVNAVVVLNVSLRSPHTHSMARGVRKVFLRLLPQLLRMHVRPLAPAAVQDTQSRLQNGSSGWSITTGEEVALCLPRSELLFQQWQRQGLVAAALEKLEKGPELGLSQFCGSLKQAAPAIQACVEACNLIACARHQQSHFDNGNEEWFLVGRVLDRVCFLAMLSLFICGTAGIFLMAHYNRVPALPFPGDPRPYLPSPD
α1β1γδ nAChR, sequence (Q07001 22-517): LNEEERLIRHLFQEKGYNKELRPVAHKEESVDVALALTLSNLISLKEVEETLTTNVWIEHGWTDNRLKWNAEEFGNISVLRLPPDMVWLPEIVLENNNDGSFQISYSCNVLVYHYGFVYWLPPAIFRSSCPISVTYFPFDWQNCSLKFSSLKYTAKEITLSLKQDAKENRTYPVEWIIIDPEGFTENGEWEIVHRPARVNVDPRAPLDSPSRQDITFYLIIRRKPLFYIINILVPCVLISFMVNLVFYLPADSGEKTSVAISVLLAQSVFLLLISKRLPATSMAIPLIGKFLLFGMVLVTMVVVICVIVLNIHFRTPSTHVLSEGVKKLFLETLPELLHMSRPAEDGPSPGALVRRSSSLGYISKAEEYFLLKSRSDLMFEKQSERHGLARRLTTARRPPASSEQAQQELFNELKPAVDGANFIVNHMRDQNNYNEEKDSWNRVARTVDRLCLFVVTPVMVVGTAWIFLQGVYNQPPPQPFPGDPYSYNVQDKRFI
Text: as §4

[7] = test system: Parkinson's disease patients; conditions: cited from earlier work
α7 nAChR [8] = molecular target: T1, α7 nAChR; conditions: from the literature (Feuerbach et al.); read-out: EC50 as α7 nAChR agonist; cited from earlier work
[9] = AQW051 single-dose cohort pharmacokinetics (Feuerbach et al, phase I); format: in vivo, human
Text: as §1, §2
(§12) Dose and dosing regime selection for AZD0328 is targeted to achieve similar levels of α7 nAChR agonism to those reported to deliver clinical improvement in MCI with AQW051 (Trenkwalder et al., ibid).

[10] = single compartment oral dosing PK model for AQW051; design: species or system human; conditions: model parameter estimate
Text: as §5, §2, §6, §7, §8, §9, §10, §11, §12

[11] = geometric mean, cited from earlier work
[12] = healthy volunteers, oral single dose 0.025 mg, cohort geometric mean
[13] = healthy volunteers, oral single dose 0.075 mg, cohort geometric mean
[14] = healthy volunteers, oral single dose 0.23 mg, cohort geometric mean
[15] = healthy volunteers, oral single dose 0.68 mg, cohort geometric mean
[16] = healthy volunteers, oral single dose 1.35 mg, cohort geometric mean
[17] = healthy volunteers, oral single dose 2 mg, cohort geometric mean

## c1cnc2c(c1)C[C@@]1(CN3CCC1CC3)O2 [AZD0328, (3R)-spiro[1-azabicyclo[2.2.2]octane-3,2′(3′H)-furo[2,3-b]pyridine]
[1]; clinical studies, single dose 0.68 mg
  adverse effects: adverse effects, especially, nausea become apparent
[1]; clinical studies, single doses from 0.25 mg to 0.50 mg
  prevalence of adverse events: markedly reduced
[1]; [12]
  Cmax: 0.63 nM
  t1/2: 6.25 h
[1]; [13]
  Cmax: 2.08 nM
  t1/2: 5.94 h
[1]; [14]
  Cmax: 6.37 nM
  t1/2: 6.69 h
[1]; [15]
  Cmax: 15 nM
  t1/2: 5.98 h
[1]; [16]
  Cmax: 31 nM
  t1/2: 6.87 h
[1]; [17]
  Cmax: 43.9 nM
  tmax: 2.45 h
[1]; human, plasma, oral, mean over cohorts
  half-life: 1.81 h
[1]; human, plasma, oral, mean over cohorts, read-out: tmax
  tmax: 6.21 h
[1]; human, plasma, healthy volunteers, oral single dose 0.025 mg, cohort geometric mean, read-out: tmax
  tmax: 1.44 h
[1]; human, plasma, healthy volunteers, oral single dose 0.075 mg, cohort geometric mean, read-out: tmax
  tmax: 1.59 h
[1]; human, plasma, healthy volunteers, oral single dose 0.23 mg, cohort geometric mean, read-out: tmax
  tmax: 1.38 h
[1]; human, plasma, healthy volunteers, oral single dose 0.68 mg, cohort geometric mean, read-out: tmax
  tmax: 2.08 h
[1]; human, plasma, healthy volunteers, oral single dose 1.35 mg, cohort geometric mean, read-out: tmax
  tmax: 2.95 h
[1]; mean over cohorts
  Cmax/Dose: 24.6 nM/mg
[1]; oral single dose 0.025 mg
  Cmax/Dose: 25.2 nM/mg
[1]; oral single dose 0.075 mg
  Cmax/Dose: 27.7 nM/mg
[1]; oral single dose 0.23 mg
  Cmax/Dose: 27.7 nM/mg
[1]; oral single dose 0.68 mg
  Cmax/Dose: 22.1 nM/mg
[1]; oral single dose 1.35 mg
  Cmax/Dose: 22.9 nM/mg
[1]; oral single dose 2 mg
  Cmax/Dose: 21.94 nM/mg
Schizophrenia patients
  improvement in cognition: did not show a statistically significant improvement in cognition
α7 nAChR [2]
  pKi: 8.30
α7 nAChR [3]
  pIC50: 8.52
[4]
  K (equation 7 and 8): 32.4 nm/mg
  ka (absorption time constant): 1.57 h⁻¹
  ke (elimination time constant): 0.11 h⁻¹
α7 nAChR [5]; read-out: activation of whole cell current IC50
  pEC50: 5.54
α7 nAChR [5]; read-out: intrinsic activity compared with acetylcholine
  Emax: 101%
[6]
  selectivity to other nicotinic receptors and a panel of other targets: 1000 fold
Rhesus monkeys
  doses enhancing spatial working memory: above 0.001 mg/kg
rats
  long-term potentiation: significantly improve
  operant conditioning: significantly improve
α1β1γδ nAChR
  selectivity to the α1β1γδ nAChR: ~20 fold

## Cc1ccc(-c2ccc(OC3CN4CCC3CC4)cn2)cc1 (stereo not drawn) [AQW051]
[7]; PD patients, 10 mg once daily, P=0.073
  effect size, improvement in MCI: 0.4
[7]; PD patients, 10 mg
  increase in cognitive function: not significantly different from the control group
[7]; PD patients, 50 mg once daily, P=0.024
  effect size, improvement in MCI: 0.5
[7]; PD patients, 50 mg
  improvement in cognitive function: significantly different from the placebo cohort
[7]; Trenkwalder et al 2016 study
  cognitive function: improvements in cognitive function can be realised
α7 nAChR [8]
  pEC50: 7.40
[9]; Cohort 1, single dose 0.5 mg
  Cmax/Dose: 0.53 ng/mL/mg
[9]; Cohort 2, single dose 2.5 mg
  Cmax/Dose: 0.48 ng/mL/mg
[9]; Cohort 3, single dose 7.5 mg
  Cmax/Dose: 0.58 ng/mL/mg
[9]; Cohort 4, single dose 25 mg
  Cmax/Dose: 0.82 ng/mL/mg
[9]; Cohort 5, single dose 75 mg
  Cmax/Dose: 0.63 ng/mL/mg
[9]; Cohort 6, single dose 200 mg
  Cmax/Dose: 0.81 ng/mL/mg
[9]; mean over cohorts
  Cmax/Dose: 0.64 ng/mL/mg
  t1/2: 20.9 h
  tmax: 6.80 h
[10]
  K (equation 7 and 8): 0.88 ng/mL/mg
  ka (absorption time constant): 0.40 h⁻¹
  ke (elimination time constant): 0.033 h⁻¹
[11]; Cohort 1, single dose 0.5 mg
  Cmax: 0.266 ng/mL
  tmax: 8 h
[11]; Cohort 2, single dose 2.5 mg
  Cmax: 1.20 ng/mL
  tmax: 8 h
[11]; Cohort 3, single dose 7.5 mg
  Cmax: 4.34 ng/mL
  t1/2: 22.0 h
  tmax: 7.98 h
[11]; Cohort 4, single dose 25 mg
  Cmax: 20.6 ng/mL
  t1/2: 22.7 h
  tmax: 8 h
[11]; Cohort 5, single dose 75 mg
  Cmax: 47.0 ng/mL
  t1/2: 18.8 h
  tmax: 4.04 h
[11]; Cohort 6, single dose 200 mg
  Cmax: 162 ng/mL
  t1/2: 20.0 h
  tmax: 4.77 h
